From article PMC8151276, “An Integrated Approach toward NanoBRET Tracers for Analysis of GPCR Ligand Engagement” (Molecules, 2021) come the findings set out here.

This assay deals with T1, GRM7 (Homo sapiens, UniProt Q14831).
T1 construct: purchased Promega (in-house HiBiT-GPCR construct library, NanoBRET)
In words: NanoBRET screen HiBiT-GRM7 in HEK293. The format is binding. As for the experimental part:
Each tracer candidate was screened across the entire library of HiBiT-GPCR constructs using NanoBRET as the detection modality. As depicted in Figure 4A, the specificity of interactions was evaluated through decrease in BRET due to competitive displacement of a bound tracer by excess parental compound. Each tracer was analyzed for binding to each HiBiT-GPCR fusion in the absence and in the presence of competing parental compound. Briefly, HEK293 cells were transfected with HiBiT-GPCR constructs diluted into promoterless DNA to reduce expression and maximize translocation to the cell surface. Each tracer candidate was then screened at concentrations of 1 μM and 0.1 μM across cells expressing these fusions. Cells were treated for 1.5 h with tracer either alone or in the presence of 20 μM competing parental compound (i.e., control). BRET was measured upon addition of purified LgBiT and subsequent complementation with HiBiT genetically fused to a GPCR. The specificity of interactions was assessed through a decrease in BRET signal due to competitive displacement of the bound tracer. To further gauge the robustness of these interactions, the fold response over the control (i.e., BRETtracer/BRETcontrol) was calculated. We chose a 1.5-fold response, which translates to ≥7-fold signal over noise as the minimal threshold required to score an interaction as positive.
HiBiT-GPCR DNA constructs were diluted in 10 mM Tris pH 8 to a final concentration of 0.01 μg/μL, arrayed in 96-well plates and stored at −20 °C. For transfection, HEK293 cells were suspended in Opti-MEM (without phenol red) supplemented with 2% fetal bovine serum (Seradigm) and 100 units/mL penicillin–streptomycin (Gibco) at a final concentration of 220,000 cells/mL and dispensed into white 96-well plates at 90 μL/well. Subsequent transfections and screens were carried using an Agilent Bravo Automated Liquid Handling Platform. First, the 96-well HiBiT DNA arrays were diluted 25-fold in Opti-MEM (without serum or phenol red) to a final concentration of 0.0004 μg/μL and 20 μL of the diluted DNAs were transferred into new 96-well plates. Next, promoterless carrier DNA (1 μg/μL) was diluted 25-fold (0.04 μg/μL) and then dispensed into the diluted arrays at 20 μL/well. Following brief mixing, Viafect transfection reagent (Promega) diluted 16-fold into Opti-MEM was dispensed into the plates at 40 μL/well. After mixing by pipetting, plates were incubated for 10 min on the pipetting station deck. The DNA-transfection reagent complexes were then added to plates containing cells. To facilitate the screen, 10 μL of DNA-transfection reagent complexes were added in duplicates to the top 4 and bottom 4 rows, resulting in two identical 48-well arrays per plate. Plates with transfected cells were incubated for 18–20 h at 37 °C/5% CO2. A screen of each tracer across the entire library using two different concentrations requires duplicate plates of transfected cells. Depending on the number of tracers being screened, transfections can be scaled up using the same ratios. The next day, for each tracer, four 20× screening solutions in tracer dilution buffer (Promega) were prepared: two duplicates at final concentration of 20 μM and two duplicates at a final concentration of 2 μM. […] The four resulting solutions were diluted 4-fold in Opti-MEM without serum or phenol red to generate 5× solutions (5 µM and 0.5 µM tracer +/− 100 μM competing compound). To screen the library, a BioTek MultiFlo FX liquid dispenser was used to dispense 22.5 µL of tracer solution to the top 4 rows and 22.5 µL tracer + competing compound solution to the 4 bottom rows. Plates were briefly mixed on an orbital shaker and incubated for 1.5 h at room temperature. […] Plates were briefly mixed on an orbital shaker and incubated for 15 min to allow complementation.
On the technique in general: BRET reads energy transfer from a luciferase to a nearby fluorophore.

T1 sequence (Q14831 35-915): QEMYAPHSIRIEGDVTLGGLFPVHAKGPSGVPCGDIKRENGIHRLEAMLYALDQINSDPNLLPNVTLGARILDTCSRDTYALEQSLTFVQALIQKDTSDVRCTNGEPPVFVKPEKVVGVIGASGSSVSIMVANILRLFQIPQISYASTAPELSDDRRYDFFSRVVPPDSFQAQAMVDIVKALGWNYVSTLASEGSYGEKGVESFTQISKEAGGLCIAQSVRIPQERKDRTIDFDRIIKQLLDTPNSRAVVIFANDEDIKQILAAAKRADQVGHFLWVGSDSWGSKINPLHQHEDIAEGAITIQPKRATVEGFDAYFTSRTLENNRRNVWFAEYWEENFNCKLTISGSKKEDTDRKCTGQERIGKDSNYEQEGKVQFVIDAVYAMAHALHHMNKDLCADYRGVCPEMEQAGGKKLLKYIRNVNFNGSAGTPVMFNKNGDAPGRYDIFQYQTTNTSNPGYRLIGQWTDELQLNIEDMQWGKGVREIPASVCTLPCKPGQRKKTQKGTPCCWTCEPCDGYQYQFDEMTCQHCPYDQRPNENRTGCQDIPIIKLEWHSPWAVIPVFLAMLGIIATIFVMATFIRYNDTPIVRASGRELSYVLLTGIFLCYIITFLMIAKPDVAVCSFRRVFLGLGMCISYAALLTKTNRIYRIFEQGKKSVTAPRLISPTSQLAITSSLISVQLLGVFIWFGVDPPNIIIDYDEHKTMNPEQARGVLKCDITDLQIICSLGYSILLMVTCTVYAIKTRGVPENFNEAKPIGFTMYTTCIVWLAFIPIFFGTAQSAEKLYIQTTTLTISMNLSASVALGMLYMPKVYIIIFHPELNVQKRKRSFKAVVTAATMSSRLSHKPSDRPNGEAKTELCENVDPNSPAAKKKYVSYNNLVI

As for `COc1ccc2c(n1)c(CCNC(C)=O)cn2CCNC(=O)CCc1ccc2n1[B-](F)(F)[N+]1=C(c3ccc[nH]3)C=CC1=C2` [Azamelatonin-1-NB590], the “NanoBRET Fold Response” value by setting is: (0.1μM tracer) 1.10; (1μM tracer) 1.16.
As for `CC(C)N(CC[C@H](c1ccccc1)c1cc(CCNC(=O)c2ccc(CNC(=O)CCc3ccc4n3[B-](F)(F)[N+]3=C(c5ccc[nH]5)C=CC3=C4)cc2)ccc1O)C(C)C` [Tolterodine-BZ-NB590], the “NanoBRET Fold Response” value was 0.99 (GRM7, tracer 0.1μM) and 1.02 (GRM7, tracer 1μM).
Take `O=C(CCc1ccc2n1[B-](F)(F)[N+]1=C(c3ccc[nH]3)C=CC1=C2)NCCOCCOCCNC(=O)OCCOCCN1CCN(C2=Nc3ccccc3Sc3ccccc32)CC1` [Quetiapine-a-2-NB590]: the “NanoBRET Fold Response” value (GRM7, tracer 0.1μM) is listed as 1.03 and the “NanoBRET Fold Response” value (GRM7, tracer 1μM) stood at 1.05.
Taken in the same sequence, the figures for `Cc1cc2c(s1)Nc1ccccc1N=C2N1CCN(CCCNC(=O)CCOCCOCCOCCOCCNC(=O)CCc2ccc3n2[B-](F)(F)[N+]2=C(c4ccc[nH]4)C=CC2=C3)CC1` [Olanzapine-a-2-NB590] were 1.00 and 1.02.
Consider `O=C(CCc1ccc2n1[B-](F)(F)[N+]1=C(c3ccc[nH]3)C=CC1=C2)NCc1ccc(C(=O)NCCOCCOCCNCC(O)COc2cccc3ccccc23)cc1` (stereo not shown) [Propranolol-3-NB590], for which the “NanoBRET Fold Response” value (GRM7, 0.1μM) stood at 1.00 and the “NanoBRET Fold Response” value (GRM7, 1μM) amounted to 0.97.
Turning to `CN1CCN(C2=Nc3cc(Cl)ccc3N(CC(=O)NCCOCCOCCOCCOCCNC(=O)CCc3ccc4n3[B-](F)(F)[N+]3=C(c5ccc[nH]5)C=CC3=C4)c3ccccc32)CC1` [Clozapine-c-2-NB590], the “NanoBRET Fold Response” value is listed as 1.00 (GRM7, 0.1μM tracer) and 1.03 (GRM7, 1μM tracer).
In the case of `O=C(CCc1ccc2n1[B-](F)(F)[N+]1=C(c3ccc[nH]3)C=CC1=C2)NCc1ccc(C(=O)NCCOCCC(=O)N[C@@H]2CC[C@@]3(O)[C@H]4Cc5ccc(O)c6c5[C@@]3(CCN4CC3CC3)[C@H]2O6)cc1` [Naltrexone-3-NB590], the “NanoBRET Fold Response” value stood at 1.01 (GRM7, tracer 0.1μM) and 0.93 (GRM7, tracer 1μM).
As for `CC(C)N(CC[C@H](c1ccccc1)c1cc(CCNC(=O)CCOCCOCCOCCOCCNC(=O)CCc2ccc3n2[B-](F)(F)[N+]2=C(c4ccc[nH]4)C=CC2=C3)ccc1O)C(C)C` [Tolterodine-2-NB590], the “NanoBRET Fold Response” value is, setting by setting: (GRM7, tracer 0.1μM) 1.18; (GRM7, tracer 1μM) 0.89.
Take `Cc1nc2n(c(=O)c1CCN1CCC(c3noc4cc(F)ccc34)CC1)CCCC2OC(=O)NCCOCCOCCOCCOCCNC(=O)CCc1ccc2n1[B-](F)(F)[N+]1=C(c3ccc[nH]3)C=CC1=C2` (stereo not shown) [Risperidone-2-NB590]: the “NanoBRET Fold Response” value reads like this: (GRM7, tracer 0.1μM) 1.00; (GRM7, tracer 1μM) 1.00.
Take `O=C(CCOCCOCCOCCOCCNC(=O)CCc1ccc2n1[B-](F)(F)[N+]1=C(c3ccc[nH]3)C=CC1=C2)NCCCN1CCN(C2=Nc3cc(Cl)ccc3Nc3ccccc32)CC1` [Clozapine-a-2-NB590]: the “NanoBRET Fold Response” value reads like this: (GRM7, 0.1μM tracer) 0.95; (GRM7, 1μM tracer) 0.92.
Consider `COc1ccc2[nH]c(-c3ccc(CNC(=O)CCOCCOCCOCCOCCNC(=O)CCc4ccc5n4[B-](F)(F)[N+]4=C(c6ccc[nH]6)C=CC4=C5)cc3)c(CCNC(C)=O)c2n1` [AzomelatoninICO9-2-NB590], for which the “NanoBRET Fold Response” value was 1.03 (0.1μM tracer) and 1.08 (1μM tracer).
With `CN1CCN(C2=Nc3cc(Cl)ccc3Nc3ccc(CNC(=O)CCOCCOCCOCCOCCNC(=O)CCc4ccc5n4[B-](F)(F)[N+]4=C(c6ccc[nH]6)C=CC4=C5)cc32)CC1` [Clozapine-b-2-NB590], the “NanoBRET Fold Response” value came out at 1.04 (GRM7, 0.1μM tracer) and 0.93 (GRM7, 1μM tracer).
As for `COc1ccccc1N1CCN(CCCCN2C(=O)c3ccc(CNC(=O)CCOCCNC(=O)c4ccc(CNC(=O)CCc5ccc6n5[B-](F)(F)[N+]5=C(c7ccc[nH]7)C=CC5=C6)cc4)cc3C2=O)CC1` [NAN-190-3-NB590], the “NanoBRET Fold Response” value by setting is: (GRM7, tracer 0.1μM) 1.01; (GRM7, tracer 1μM) 0.95.
Consider `N#CN=C(NCCCOc1cccc(CN2CCCCC2)c1)NCCNC(=O)CCOCCOCCOCCOCCNC(=O)CCc1ccc2n1[B-](F)(F)[N+]1=C(c3ccc[nH]3)C=CC1=C2` [Aminopotentidine-2-NB590], for which the “NanoBRET Fold Response” value (GRM7, tracer 0.1μM) worked out at 0.98 and the “NanoBRET Fold Response” value (GRM7, tracer 1μM) was found to be 1.05.
Taken in the same sequence, the figures for `CN(C)CCC=C1c2ccccc2CCc2ccc(C(=O)NCCNC(=O)CCOCCOCCOCCOCCNC(=O)CCc3ccc4n3[B-](F)(F)[N+]3=C(c5ccc[nH]5)C=CC3=C4)cc21` [Amitriptyline-b-2-NB590] were 1.09 and 1.00.
For the molecule `COc1ccccc1N1CCN(CCCCN2C(=O)c3ccc(CNC(=O)CCOCCOCCOCCOCCNC(=O)CCc4ccc5n4[B-](F)(F)[N+]4=C(c6ccc[nH]6)C=CC4=C5)cc3C2=O)CC1` [NAN-190-2-NB590], where the note is “GRM7, tracer 0.1μM”, the “NanoBRET Fold Response” value worked out at 1.00.
As for `O=C(CCOCCOCCOCCOCCNC(=O)CCc1ccc2n1[B-](F)(F)[N+]1=C(c3ccc[nH]3)C=CC1=C2)NCCCN1CCN(C2=Nc3ccccc3Oc3ccc(Cl)cc32)CC1` [Loxapine-a-2-NB590], the “NanoBRET Fold Response” value reads like this: (GRM7, tracer 0.1μM) 1.07; (GRM7, tracer 1μM) 1.12.
The like results for `CCCn1c(=O)c2[nH]c(-c3ccc(OCC(=O)NCCNC(=O)CCOCCNC(=O)c4ccc(CNC(=O)CCc5ccc6n5[B-](F)(F)[N+]5=C(c7ccc[nH]7)C=CC5=C6)cc4)cc3)nc2n(CCC)c1=O` [XAC-3-NB590] were, in that order, 1.03 and 1.07.
Consider `CCOC(=O)c1cc(C#N)c(N2CCC(C(=O)NS(=O)(=O)Cc3ccccc3/C=C/C(=O)NCCNC(=O)CCc3ccc4n3[B-](F)(F)[N+]3=C(c5ccc[nH]5)C=CC3=C4)CC2)nc1C` [AZD1283-1-NB590], for which the “NanoBRET Fold Response” value (GRM7, 0.1μM) was found to be 0.98 and the “NanoBRET Fold Response” value (GRM7, 1μM) turned out to be 1.05.
